These results are taken from patent US9617267B2, “Compounds and methods for kinase modulation, and indications therefor” (Plexxikon Inc., priority 2009, dated 2017).

Where two headings read alike, the source gives them in different places.

Data set [1] has as its target CYP3A4(BFC) (Homo sapiens (Human), UniProt P08684). Briefly: CYP enzyme inhibition, fluorescent substrate BFC. Put shortly: (§1)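 Human CYP activity was followed by the fluorescence of the metabolized product of a known substrate, which falls as metabolism is inhibited. Compounds from 100 mM DMSO stocks were serially diluted 1:1 over 10 points in co-factor mix and preincubated 10 min at 37 °C. IC50 was fitted from signal versus concentration.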

Data set [2] has as its target CYP2D6 (Homo sapiens (Human), UniProt P10635). Briefly: CYP enzyme inhibition, fluorescent substrate (AMMC). The format is in vitro ADME. The conditions noted are these: read-out: Cyp IC50 2D6. In short, it runs like this:
(§2)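 Ten-point 1:1 compound dilutions in NADPH-regenerating cofactor mix, pre-incubated 10 min at 37 °C before enzyme/substrate addition: CYP1A2 0.5 pmol with 5 μM CEC, 15 min, 409 ex/460 em; CYP2D6 1.5 pmol with 1.5 μM AMMC, 30 min, 409 ex/530 em. IC50 from fluorescent product vs concentration.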

The nature of data set [3]: Relative solubility by turbidity threshold concentration in aqueous buffers (pH 1.5, 4.5, 6.8, 7.4). It is filed as physicochemical. The conditions noted are these: for turbidity threshold (L, M, H) 1.4: pH 1.4 [sic] (method: SGF pH 1.5); for turbidity threshold (L, M, H) 4.5: pH 4.5 (SIF); for turbidity threshold (L, M, H) 6.8: pH 6.8 (SIF); for turbidity threshold (L, M, H) 7.4: pH 7.4 (HEPES). Put shortly: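 Solubility class (high >250 μM, moderate 31.3–250 μM, low <31.3 μM) comes from the concentration where absorbance reaches a 0.01 threshold, averaged across 490/535/650 nm. Samples were compound dilutions from DMSO stock, 1 μL into 99 μL buffer at pH 1.5, 4.5, 6.8 or 7.4.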

For data set [4], the target named is CYP1A2 (Homo sapiens (Human), UniProt P05177). Put plainly: CYP enzyme inhibition, fluorescent substrate (CEC). In short, it runs like this:
as §2

Data set [5] concerns the target CYP2C19 (Homo sapiens (Human), UniProt P33261). Briefly: CYP enzyme inhibition, fluorescent substrate (CEC). In short, it runs like this:
as §1

In data set [6] the target is B-Raf (Homo sapiens (Human), UniProt P15056). Briefly: B-Raf kinase activity biochemical assay (AlphaScreen, biotin-MEK1 phosphorylation). The conditions noted are these: B-Raf. Put shortly: (§3)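 Biotin-MEK1 phosphorylation measured after 45 min kinase reaction at RT with 100 μM ATP final; compounds tested at 8 points from 0.1 mM DMSO stock.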
In general terms: Bead proximity is the source of the signal in Alpha formats.

Data set [7] has as its system B-Raf. The data set is described as above. As to conditions: for Biochemical activity ratio B/V600E: ratio of IC50 B-Raf / B-Raf V600E; for Biochemical activity ratio B/C: ratio of IC50 B-Raf / c-Raf-1. Put shortly:
as §3

Data set [8] has as its target c-Raf-1 (Homo sapiens, UniProt P04049). Put plainly: c-Raf-1 kinase activity biochemical assay (AlphaScreen, biotin-MEK1 phosphorylation). In short, it runs like this:
as §3

The target in data set [9] is CYP3A4(BQ) (Homo sapiens (Human), UniProt P08684). Put plainly: CYP enzyme inhibition, fluorescent substrate BQ. Put shortly: as §1
In data set [10] the target is B-Raf V600E (Homo sapiens (Human), UniProt P15056, V600E). Put plainly: B-Raf V600E kinase activity biochemical assay (AlphaScreen, biotin-MEK1 phosphorylation). As to conditions: for IC50: B-Raf V600E; for Biochemical activity ratio V600E/C: ratio of IC50 B-Raf V600E / c-Raf-1. Put shortly:
as §3

The target in data set [11] is CYP2C9 (Homo sapiens (Human), UniProt P11712). Briefly: CYP enzyme inhibition, fluorescent substrate (MFC). Put shortly:
as §1

Where [12] appears, read: read-out: Cyp IC50 3A4(BFC), CYP3A4, substrate BFC.
The mark [13] stands for this setting: read-out: Cyp IC50 2C19, CYP2C19, substrate CEC.
Where [14] appears, read: read-out: Cyp IC50 3A4(BQ), CYP3A4, substrate BQ.
Where [15] appears, read: read-out: Cyp IC50 2C9, CYP2C9, substrate MFC.

Sequence of c-Raf-1 (P04049 whole entry, looked up): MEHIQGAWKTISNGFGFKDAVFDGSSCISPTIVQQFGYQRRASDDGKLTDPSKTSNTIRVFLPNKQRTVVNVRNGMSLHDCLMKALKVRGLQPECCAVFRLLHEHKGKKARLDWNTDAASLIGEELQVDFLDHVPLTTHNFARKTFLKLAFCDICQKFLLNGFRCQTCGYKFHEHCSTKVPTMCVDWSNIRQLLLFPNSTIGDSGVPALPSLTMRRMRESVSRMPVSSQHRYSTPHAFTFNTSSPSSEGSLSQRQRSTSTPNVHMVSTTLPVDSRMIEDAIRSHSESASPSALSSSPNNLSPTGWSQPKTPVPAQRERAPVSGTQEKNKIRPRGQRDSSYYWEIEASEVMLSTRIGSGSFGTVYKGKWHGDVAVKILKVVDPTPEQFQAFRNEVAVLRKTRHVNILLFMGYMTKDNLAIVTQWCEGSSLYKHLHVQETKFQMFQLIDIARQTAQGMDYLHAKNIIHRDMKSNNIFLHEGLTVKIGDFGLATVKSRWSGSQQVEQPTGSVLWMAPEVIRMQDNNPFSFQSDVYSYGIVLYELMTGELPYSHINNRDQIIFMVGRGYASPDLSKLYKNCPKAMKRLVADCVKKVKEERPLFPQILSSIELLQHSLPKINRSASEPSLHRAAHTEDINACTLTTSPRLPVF
Sequence of CYP2D6 (P10635 whole entry): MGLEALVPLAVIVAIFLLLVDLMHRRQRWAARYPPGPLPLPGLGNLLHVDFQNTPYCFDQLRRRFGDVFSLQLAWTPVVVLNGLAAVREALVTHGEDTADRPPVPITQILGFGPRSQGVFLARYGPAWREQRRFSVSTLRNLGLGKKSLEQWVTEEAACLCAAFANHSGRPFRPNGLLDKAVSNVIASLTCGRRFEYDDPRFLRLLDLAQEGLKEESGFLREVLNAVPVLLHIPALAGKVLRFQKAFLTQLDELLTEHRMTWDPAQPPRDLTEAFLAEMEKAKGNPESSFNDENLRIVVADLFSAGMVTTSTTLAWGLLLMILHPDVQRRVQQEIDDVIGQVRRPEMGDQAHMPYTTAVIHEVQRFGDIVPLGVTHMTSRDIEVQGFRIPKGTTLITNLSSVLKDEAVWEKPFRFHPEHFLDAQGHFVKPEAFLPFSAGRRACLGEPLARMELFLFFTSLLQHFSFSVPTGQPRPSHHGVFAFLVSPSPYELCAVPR
Sequence of B-Raf V600E (P15056 whole entry V600E): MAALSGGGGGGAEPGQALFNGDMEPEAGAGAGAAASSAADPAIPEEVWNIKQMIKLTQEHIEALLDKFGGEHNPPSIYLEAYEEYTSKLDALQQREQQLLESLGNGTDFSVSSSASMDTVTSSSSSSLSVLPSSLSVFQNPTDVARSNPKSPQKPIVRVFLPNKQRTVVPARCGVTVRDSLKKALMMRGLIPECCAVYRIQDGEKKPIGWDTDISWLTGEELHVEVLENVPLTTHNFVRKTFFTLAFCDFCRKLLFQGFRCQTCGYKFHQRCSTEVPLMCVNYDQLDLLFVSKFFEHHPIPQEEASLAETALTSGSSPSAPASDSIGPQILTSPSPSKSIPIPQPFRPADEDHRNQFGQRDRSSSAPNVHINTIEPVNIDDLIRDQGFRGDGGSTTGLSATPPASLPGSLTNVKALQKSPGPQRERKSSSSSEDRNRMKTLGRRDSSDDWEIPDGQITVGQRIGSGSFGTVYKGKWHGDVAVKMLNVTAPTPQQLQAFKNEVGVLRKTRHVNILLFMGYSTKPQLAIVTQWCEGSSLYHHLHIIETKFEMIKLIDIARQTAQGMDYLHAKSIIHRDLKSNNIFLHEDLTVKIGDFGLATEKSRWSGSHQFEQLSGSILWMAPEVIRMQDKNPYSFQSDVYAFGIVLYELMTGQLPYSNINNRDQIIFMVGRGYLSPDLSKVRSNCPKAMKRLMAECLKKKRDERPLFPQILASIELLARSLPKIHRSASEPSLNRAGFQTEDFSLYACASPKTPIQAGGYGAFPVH
Sequence of CYP3A4(BFC) (P08684 whole entry): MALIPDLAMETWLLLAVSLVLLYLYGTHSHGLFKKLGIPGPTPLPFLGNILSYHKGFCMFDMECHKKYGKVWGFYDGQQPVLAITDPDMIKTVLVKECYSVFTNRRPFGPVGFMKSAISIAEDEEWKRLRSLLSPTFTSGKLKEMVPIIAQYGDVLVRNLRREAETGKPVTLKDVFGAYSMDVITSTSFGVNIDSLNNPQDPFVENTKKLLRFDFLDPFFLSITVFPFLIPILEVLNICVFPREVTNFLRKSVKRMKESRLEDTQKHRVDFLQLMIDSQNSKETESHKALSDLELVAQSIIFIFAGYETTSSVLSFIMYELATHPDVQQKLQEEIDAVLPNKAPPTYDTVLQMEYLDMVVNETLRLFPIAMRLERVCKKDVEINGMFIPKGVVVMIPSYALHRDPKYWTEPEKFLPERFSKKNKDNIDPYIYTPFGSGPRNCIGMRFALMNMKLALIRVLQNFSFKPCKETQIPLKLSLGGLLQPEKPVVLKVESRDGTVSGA
Sequence of CYP3A4(BQ) (P08684 whole entry): as above
Sequence of CYP2C19 (P33261 whole entry): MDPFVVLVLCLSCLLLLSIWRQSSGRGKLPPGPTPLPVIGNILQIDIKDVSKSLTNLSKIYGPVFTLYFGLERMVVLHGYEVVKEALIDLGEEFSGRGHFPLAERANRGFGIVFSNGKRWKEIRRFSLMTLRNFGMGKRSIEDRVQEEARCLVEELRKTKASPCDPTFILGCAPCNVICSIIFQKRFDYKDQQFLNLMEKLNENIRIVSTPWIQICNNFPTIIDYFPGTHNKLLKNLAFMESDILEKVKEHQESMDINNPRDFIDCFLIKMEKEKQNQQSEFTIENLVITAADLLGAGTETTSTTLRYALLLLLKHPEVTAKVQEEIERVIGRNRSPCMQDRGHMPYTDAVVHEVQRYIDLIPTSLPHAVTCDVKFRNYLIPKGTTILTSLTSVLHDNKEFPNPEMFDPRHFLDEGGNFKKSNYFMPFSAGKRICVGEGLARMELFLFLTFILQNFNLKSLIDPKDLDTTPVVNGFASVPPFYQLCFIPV
Sequence of B-Raf (Homo sapiens (Human), UniProt P15056) (P15056 whole entry): as the sequence (P15056 whole entry V600E) above, with E600V counted along it
Sequence of CYP1A2 (P05177 whole entry): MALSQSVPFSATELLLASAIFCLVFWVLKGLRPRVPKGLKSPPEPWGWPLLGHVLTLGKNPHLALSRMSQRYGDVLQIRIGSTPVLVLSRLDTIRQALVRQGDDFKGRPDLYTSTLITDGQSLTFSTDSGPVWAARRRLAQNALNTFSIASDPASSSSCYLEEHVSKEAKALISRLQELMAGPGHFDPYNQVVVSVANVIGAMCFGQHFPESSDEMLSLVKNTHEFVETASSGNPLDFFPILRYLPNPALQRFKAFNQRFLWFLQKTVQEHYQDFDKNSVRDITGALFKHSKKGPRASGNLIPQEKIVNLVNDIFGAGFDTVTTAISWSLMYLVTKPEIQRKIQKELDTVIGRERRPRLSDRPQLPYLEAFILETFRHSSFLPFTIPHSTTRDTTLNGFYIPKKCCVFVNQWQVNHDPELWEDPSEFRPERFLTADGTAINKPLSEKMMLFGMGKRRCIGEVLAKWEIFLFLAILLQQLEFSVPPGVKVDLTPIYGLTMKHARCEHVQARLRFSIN
Sequence of CYP2C9 (P11712 whole entry): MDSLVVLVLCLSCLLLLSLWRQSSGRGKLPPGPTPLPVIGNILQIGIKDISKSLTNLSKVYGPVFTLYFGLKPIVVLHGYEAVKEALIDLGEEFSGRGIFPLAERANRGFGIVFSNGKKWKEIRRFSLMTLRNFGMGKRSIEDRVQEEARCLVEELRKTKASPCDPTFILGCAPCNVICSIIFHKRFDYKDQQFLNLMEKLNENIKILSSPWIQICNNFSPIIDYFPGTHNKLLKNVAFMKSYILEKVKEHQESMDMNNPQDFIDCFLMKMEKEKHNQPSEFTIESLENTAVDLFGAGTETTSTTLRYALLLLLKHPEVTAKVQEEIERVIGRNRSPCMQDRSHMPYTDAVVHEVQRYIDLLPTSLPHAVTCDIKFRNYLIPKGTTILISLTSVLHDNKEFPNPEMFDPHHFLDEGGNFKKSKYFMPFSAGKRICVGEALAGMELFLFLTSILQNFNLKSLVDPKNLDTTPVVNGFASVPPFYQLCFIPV

Take `O=C(c1c(F)ccc(NS(=O)(=O)c2ccc(C(F)(F)F)cc2)c1F)c1c[nH]c2ncnc(NC3CCOCC3)c12` [P-1013, N-{2,4-Difluoro-3-[4-(tetrahydro-pyran-4-ylamino)-7H-pyrrolo[2,3-d]pyrimidine-5-carbonyl]-phenyl}-4-trifluoromethyl-benzenesulfonamide]: the IC50 in data set [1] (setting [12]) was more than 10 µM; in data set [2] it was more than 10 µM; in data set [4] (read-out: Cyp IC50 1A2, CYP1A2, substrate CEC) it was more than 10 µM; in data set [5] (setting [13]), more than 10 µM; in [6], less than 0.1 µM; in data set [8] it was less than 0.1 µM. The 50% inhibitory concentration (IC50) in data set [9] (setting [14]) is more than 10 µM; in data set [10], more than 0.1 µM; in data set [11] (setting [15]), more than 10 µM. In [3], the “turbidity threshold (L, M, H) 1.4” value is “L (low solubility if the threshold concentration is <31.3 μM)”. Further, the “turbidity threshold (L, M, H) 4.5” value in [3] is given as “L (low solubility if the threshold concentration is <31.3 μM)”. For the same compound, the “turbidity threshold (L, M, H) 6.8” value in data set [3] is listed as “L (low solubility if the threshold concentration is <31.3 μM)”. For the same compound, the “turbidity threshold (L, M, H) 7.4” value in data set [3] is reported as “M (moderate solubility if the threshold concentration is 31.3 μM to 250 μM)”. In data set [7], the “Biochemical activity ratio B/V600E” value was 0.1-10. Besides, the “Biochemical activity ratio B/C” value in [7] was more than 10. Also, in [10], the “Biochemical activity ratio V600E/C” value was more than 10.
As for `Cc1ncnc2[nH]cc(C(=O)c3c(F)ccc(NS(=O)(=O)CC(C)C)c3F)c12` [P-1003, 2-Methyl-propane-1-sulfonic acid [2,4-difluoro-3-(4-methyl-7H-pyrrolo[2,3-d]pyrimidine-5-carbonyl)-phenyl]-amide], the IC50 is more than 10 µM in data set [1] (setting [12]); more than 10 µM in data set [2]; more than 10 µM in data set [4] (human, 15 min); more than 10 µM in data set [5] (setting [13]); more than 0.1 µM in data set [6]; less than 0.1 µM in [8]. Besides, the IC50 in data set [9] is 5 to 10 µM; in [10] it was less than 0.1 µM; in data set [11], 5 to 10 µM. Moreover, the “turbidity threshold (L, M, H) 1.4” value in data set [3] was “H (high solubility if the threshold concentration is >250 μm)”. Also, the “turbidity threshold (L, M, H) 4.5” value in [3] is reported as “M (moderate solubility if the threshold concentration is 31.3 μM to 250 μM)”. In addition, in [3], the “turbidity threshold (L, M, H) 6.8” value is “M (moderate solubility if the threshold concentration is 31.3 μM to 250 μM)”. For the same compound, the “turbidity threshold (L, M, H) 7.4” value in data set [3] is listed as “M (moderate solubility if the threshold concentration is 31.3 μM to 250 μM)”. In data set [7], the “Biochemical activity ratio B/V600E” value is on record as more than 10. In data set [7], the “Biochemical activity ratio B/C” value is more than 10. The “Biochemical activity ratio V600E/C” value in data set [10] was 0.1-10.
For `CCc1ccc(S(=O)(=O)Nc2ccc(F)c(C(=O)c3c[nH]c4ncnc(NC(C)C)c34)c2F)cc1` [P-1042, N-[2,4-Difluoro-3-(4-isopropylamino-7H-pyrrolo[2,3-d]pyrimidine-5-carbonyl)-phenyl]-4-ethyl-benzenesulfonamide], the IC50 in [1] (setting [12]) was more than 10 µM; in [2], more than 10 µM; in [4] (human, 15 min) it was more than 10 µM; in [5], 5 to 10 µM; in [6], less than 0.1 µM; in data set [8], less than 0.1 µM. The IC50 in data set [9] (setting [14]) was more than 10 µM; in data set [10] it was less than 0.1 µM; in data set [11] (setting [15]), more than 10 µM. Also, the “turbidity threshold (L, M, H) 1.4” value in data set [3] was “M (moderate solubility if the threshold concentration is 31.3 μM to 250 μM)”. Further, in data set [3], the “turbidity threshold (L, M, H) 4.5” value is “L (low solubility if the threshold concentration is <31.3 μM)”. For the same compound, the “turbidity threshold (L, M, H) 6.8” value in data set [3] is “L (low solubility if the threshold concentration is <31.3 μM)”. For the same compound, in [3], the “turbidity threshold (L, M, H) 7.4” value is recorded as “L (low solubility if the threshold concentration is <31.3 μM)”. In addition, the “Biochemical activity ratio B/V600E” value in [7] is 0.1-10. For the same compound, in data set [7], the “Biochemical activity ratio B/C” value is given as 0.1-10. Also, the “Biochemical activity ratio V600E/C” value in data set [10] is more than 10.
With `CC(C)Nc1ncnc2[nH]cc(C(=O)c3c(F)ccc(NS(=O)(=O)c4ccc(C(C)C)cc4)c3F)c12` [P-1044, N-[2,4-Difluoro-3-(4-isopropylamino-7H-pyrrolo[2,3-d]pyrimidine-5-carbonyl)-phenyl]-4-isopropyl-benzenesulfonamide], the 50% inhibitory concentration (IC50) in data set [1] (setting [12]) is more than 10 µM; in data set [2], more than 10 µM; in data set [4] (human, 15 min), more than 10 µM; in data set [5] (setting [13]) it was less than 5 µM; in [6] it was less than 0.1 µM; in [8], less than 0.1 µM. In addition, the IC50 is more than 10 µM in data set [9] (setting [14]), more than 0.1 µM in [10] and more than 10 µM in data set [11] (setting [15]). The “turbidity threshold (L, M, H) 1.4” value in data set [3] is given as “M (moderate solubility if the threshold concentration is 31.3 μM to 250 μM)”. The “turbidity threshold (L, M, H) 4.5” value in data set [3] is reported as “M (moderate solubility if the threshold concentration is 31.3 μM to 250 μM)”. Besides, the “turbidity threshold (L, M, H) 6.8” value in data set [3] is reported as “M (moderate solubility if the threshold concentration is 31.3 μM to 250 μM)”. In data set [3], the “turbidity threshold (L, M, H) 7.4” value was “M (moderate solubility if the threshold concentration is 31.3 μM to 250 μM)”. Also, the “Biochemical activity ratio B/V600E” value in data set [7] was 0.1-10. For the same compound, in [7], the “Biochemical activity ratio B/C” value is more than 10. Further, in data set [10], the “Biochemical activity ratio V600E/C” value is reported as more than 10.
As for `CCCS(=O)(=O)Nc1ccc(F)c(C(=O)c2c[nH]c3ncc(F)c(C#N)c23)c1F` [P-2003, Propane-1-sulfonic acid [3-(4-cyano-5-fluoro-1H-pyrrolo[2,3-b]pyridine-3-carbonyl)-2,4-difluoro-phenyl]-amide], the IC50 is 5 to 10 µM in [1]; more than 10 µM in [2]; more than 10 µM in data set [4]; more than 10 µM in data set [5]; less than 0.1 µM in data set [6]; less than 0.1 µM in data set [8]. Moreover, the IC50 in data set [9] is 5 to 10 µM; in data set [10], less than 0.1 µM; in data set [11], less than 5 µM. For the same compound, the “turbidity threshold (L, M, H) 1.4” value in [3] is “M (moderate solubility if the threshold concentration is 31.3 μM to 250 μM)”. The “turbidity threshold (L, M, H) 4.5” value in data set [3] is listed as “M (moderate solubility if the threshold concentration is 31.3 μM to 250 μM)”. In addition, the “turbidity threshold (L, M, H) 6.8” value in data set [3] is reported as “M (moderate solubility if the threshold concentration is 31.3 μM to 250 μM)”. In addition, the “turbidity threshold (L, M, H) 7.4” value in data set [3] is recorded as “M (moderate solubility if the threshold concentration is 31.3 μM to 250 μM)”. The “Biochemical activity ratio B/V600E” value in [7] is 0.1-10. Moreover, the “Biochemical activity ratio B/C” value in data set [7] is 0.1-10. In data set [10], the “Biochemical activity ratio V600E/C” value is listed as 0.1-10.
Turning to `O=C(c1c(F)ccc(NS(=O)(=O)c2ccc(C(F)(F)F)cc2)c1F)c1c[nH]c2ncnc(OCC3CC3)c12` [P-1053, N-[3-(4-Cyclopropylmethoxy-7H-pyrrolo[2,3-d]pyrimidine-5-carbonyl)-2,4-difluoro-phenyl]-4-trifluoromethyl-benzenesulfonamide], the IC50 in data set [1] (setting [12]) is more than 10 µM; in data set [2], more than 10 µM; in data set [4] (human, 15 min), more than 10 µM; in data set [5] it was 5 to 10 µM; in [6], less than 0.1 µM; in [8], less than 0.1 µM. Also, the IC50 in data set [9] (setting [14]) is more than 10 µM; in data set [10] it was more than 0.1 µM; in [11] it was 5 to 10 µM. Further, the “turbidity threshold (L, M, H) 1.4” value in [3] is reported as “L (low solubility if the threshold concentration is <31.3 μM)”. The “turbidity threshold (L, M, H) 4.5” value in [3] is given as “L (low solubility if the threshold concentration is <31.3 μM)”. Besides, the “turbidity threshold (L, M, H) 6.8” value in data set [3] was “L (low solubility if the threshold concentration is <31.3 μM)”. Besides, the “turbidity threshold (L, M, H) 7.4” value in data set [3] is “L (low solubility if the threshold concentration is <31.3 μM)”. For the same compound, in [7], the “Biochemical activity ratio B/V600E” value is reported as 0.1-10. Further, the “Biochemical activity ratio B/C” value in [7] is recorded as 0.1-10. The “Biochemical activity ratio V600E/C” value in [10] is more than 10.

Broadly, the IC50 is the midpoint of a concentration-inhibition curve.
